The text below walks through data of patent US9822114B2, “Tricyclic oxazolidinone antibiotic compounds” (Idorsia Pharmaceuticals Ltd, priority 2008, dated 2017).

Values after ≈ are worked out from the molar mass of the structure shown.

One assay has as its system M. catarrhalis A894. Nature of the assay: Minimal inhibitory concentration (MIC), microdilution method in cation-adjusted Mueller-Hinton Broth (CLSI M7-A7). To be noted: Moraxella catarrhalis, strain A894. The assay is classed as cell-based. The protocol:
Minimal inhibitory concentrations (MICs; mg/1) were determined in cation-adjusted Mueller-Hinton Broth by a microdilution method following the description given in “Methods for Dilution Antimicrobial Susceptibility Tests for Bacteria that Grow Aerobically”, Approved standard, 7th ed., Clinical and Laboratory Standards Institute (CLSI) Document M7-A7, Wayne, Pa., USA, 2006.
Take `O=C1CSc2ccc(N3C[C@@H](CCCN[C@H]4Cn5c(=O)ccc6ncc(F)c4c65)OC3=O)nc2N1` [Example 142, (R)-3-fluoro-4-{3-[(R)-2-oxo-3-(3-oxo-3,4-dihydro-2H-pyrido[3,2-b][1,4]thiazin-6-yl)-oxazolidin-5-yl]-propylamino}-4,5-dihydro-pyrrolo[3,2,1-de][1,5]naphthyridin-7-one]: the MIC (in general, the least concentration at which growth counts as inhibited) was not above 0.031 µg/mL.
Compound `O=C1CSc2ccc(N3C[C@H](CCCN[C@H]4Cn5c(=O)ccc6ncc(F)c4c65)OC3=O)nc2N1` [Example 143, (R)-3-fluoro-4-{3-[(S)-2-oxo-3-(3-oxo-3,4-dihydro-2H-pyrido[3,2-b][1,4]thiazin-6-yl)-oxazolidin-5-yl]-propylamino}-4,5-dihydro-pyrrolo[3,2,1-de][1,5]naphthyridin-7-one] yielded an MIC not above 0.031 µg/mL.
Still for that read-out and setting: under `O=C1COc2ccc(N3C[C@H](CCCN[C@H]4Cn5c(=O)ccc6ncc(F)c4c65)OC3=O)nc2N1` [Example 144, (R)-3-fluoro-4-{3-[(S)-2-oxo-3-(3-oxo-3,4-dihydro-2H-pyrido[3,2-b][1,4]oxazin-6-yl)-oxazolidin-5-yl]-propylamino}-4,5-dihydro-pyrrolo[3,2,1-de][1,5]naphthyridin-7-one] stands not above 0.031 µg/mL; under `O=C1CSc2ccc(N3C[C@@H](CCCN[C@@H]4Cn5c(=O)ccc6ncc(F)c4c65)OC3=O)cc2N1` [Example 145, (S)-3-fluoro-4-{3-[(R)-2-oxo-3-(3-oxo-3,4-dihydro-2H-benzo[1,4]thiazin-6-yl)-oxazolidin-5-yl]-propylamino}-4,5-dihydro-pyrrolo[3,2,1-de][1,5]naphthyridin-7-one], not above 0.031 µg/mL.
On the same count and under the same terms, under `O=C1COc2ccc(N3C[C@@H](CCCN[C@@H]4Cn5c(=O)ccc6ncc(F)c4c65)OC3=O)cc2N1` [Example 146, (S)-3-fluoro-4-{3-[(R)-2-oxo-3-(3-oxo-3,4-dihydro-2H-benzo[1,4]oxazin-6-yl)-oxazolidin-5-yl]-propylamino}-4,5-dihydro-pyrrolo[3,2,1-de][1,5]naphthyridin-7-one] stands not above 0.031 µg/mL.
Consider `O=C1CSc2ccc(N3C[C@@H](CCCN[C@@H]4Cn5c(=O)ccc6ncc(F)c4c65)OC3=O)nc2N1` [Example 147, (S)-3-fluoro-4-{3-[(R)-2-oxo-3-(3-oxo-3,4-dihydro-2H-pyrido[3,2-b][1,4]thiazin-6-yl)-oxazolidin-5-yl]-propylamino}-4,5-dihydro-pyrrolo[3,2,1-de][1,5]naphthyridin-7-one], for which the minimal inhibitory concentration (MIC) was not above 0.031 µg/mL.
Turning to `O=C1CSc2ccc(N3C[C@H](CCCN[C@@H]4Cn5c(=O)ccc6ncc(F)c4c65)OC3=O)cc2N1` [Example 148, (S)-3-fluoro-4-{3-[(S)-2-oxo-3-(3-oxo-3,4-dihydro-2H-benzo[1,4]thiazin-6-yl)-oxazolidin-5-yl]-propylamino}-4,5-dihydro-pyrrolo[3,2,1-de][1,5]naphthyridin-7-one], the minimal inhibitory concentration (MIC) is not above 0.031 µg/mL.
Same read-out and setting: with `O=C1COc2ccc(N3C[C@H](CCCN[C@@H]4Cn5c(=O)ccc6ncc(F)c4c65)OC3=O)cc2N1` [Example 149, (S)-3-fluoro-4-{3-[(S)-2-oxo-3-(3-oxo-3,4-dihydro-2H-benzo[1,4]oxazin-6-yl)-oxazolidin-5-yl]-propylamino}-4,5-dihydro-pyrrolo[3,2,1-de][1,5]naphthyridin-7-one] the figure was not above 0.031 µg/mL; with `O=C1CSc2ccc(N3C[C@H](CCCN[C@@H]4Cn5c(=O)ccc6ncc(F)c4c65)OC3=O)nc2N1` [Example 150, (S)-3-fluoro-4-{3-[(S)-2-oxo-3-(3-oxo-3,4-dihydro-2H-pyrido[3,2-b][1,4]thiazin-6-yl)-oxazolidin-5-yl]-propylamino}-4,5-dihydro-pyrrolo[3,2,1-de][1,5]naphthyridin-7-one], not above 0.031 µg/mL; with `O=C1COc2ccc(N3C[C@H](CCCN[C@@H]4Cn5c(=O)ccc6ncc(F)c4c65)OC3=O)nc2N1` [Example 151, (S)-3-fluoro-4-{3-[(S)-2-oxo-3-(3-oxo-3,4-dihydro-2H-pyrido[3,2-b][1,4]oxazin-6-yl)-oxazolidin-5-yl]-propylamino}-4,5-dihydro-pyrrolo[3,2,1-de][1,5]naphthyridin-7-one], not above 0.031 µg/mL.
Regarding `O=C1COc2ccc(N3C[C@H](CCN[C@H]4Cn5c(=O)ccc6cccc4c65)OC3=O)cc2N1` [Example 157, (R)-1-{2-[(S)-2-oxo-3-(3-oxo-3,4-dihydro-2H-benzo[1,4]oxazin-6-yl)-oxazolidin-5-yl]-ethylamino}-1,2-dihydro-pyrrolo[3,2,1-ij]quinolin-4-one], the minimal inhibitory concentration (MIC) worked out at 2 µg/mL (≈ 4.48 µM).
On the same count and under the same terms, under `O=C1CSc2ccc(N3C[C@@H](CCN[C@H]4Cn5c(=O)ccc6cccc4c65)OC3=O)cc2N1` [Example 158, (R)-1-{2-[(R)-2-oxo-3-(3-oxo-3,4-dihydro-2H-benzo[1,4]thiazin-6-yl)-oxazolidin-5-yl]-ethylamino}-1,2-dihydro-pyrrolo[3,2,1-ij]quinolin-4-one] stands not above 0.031 µg/mL.
Same read-out and setting: with `O=C1CSc2ccc(N3C[C@H](CCCN[C@@H]4CN5C(=O)CNc6ccc(F)c4c65)OC3=O)cc2N1` [Example 160, (S)-7-fluoro-6-{3-[(S)-2-oxo-3-(3-oxo-3,4-dihydro-2H-benzo[1,4]thiazin-6-yl)-oxazolidin-5-yl]-propylamino}-1,2,5,6-tetrahydro-pyrrolo[1,2,3-de]quinoxalin-3-one] the figure was not above 0.031 µg/mL.
The same measure, in the same setting: under `O=C1CSc2ccc(N3C[C@@H](CCCN[C@H]4CN5C(=O)CNc6ccc(F)c4c65)OC3=O)nc2N1` [Example 171, (R)-7-fluoro-6-{3-[(R)-2-oxo-3-(3-oxo-3,4-dihydro-2H-pyrido[3,2-b][1,4]thiazin-6-yl)-oxazolidin-5-yl]-propylamino}-1,2,5,6-tetrahydro-pyrrolo[1,2,3-de]quinoxalin-3-one] stands not above 0.031 µg/mL.
For `O=C1CSc2ccc(N3C[C@H](CCNC[C@]4(O)Cn5c(=O)ccc6nccc4c65)OC3=O)cc2N1` [Example 173, (S)-4-hydroxy-4-({2-[(S)-2-oxo-3-(3-oxo-3,4-dihydro-2H-benzo[1,4]thiazin-6-yl)-oxazolidin-5-yl]-ethylamino}-methyl)-4,5-dihydro-pyrrolo[3,2,1-de][1,5]naphthyridin-7-one], the MIC is 0.125 µg/mL (≈ 0.253 µM).
The compound `O=C1COc2ccc(N3C[C@H](CCCN[C@@H]4Cn5c(=O)ccc6ccc(F)c4c65)OC3=O)nc2N1` [Example 189, (S)-9-fluoro-1-{3-[(S)-2-oxo-3-(3-oxo-3,4-dihydro-2H-pyrido[3,2-b][1,4]oxazin-6-yl)-oxazolidin-5-yl]-propylamino}-1,2-dihydro-pyrrolo[3,2,1-ij]quinolin-4-one] had an MIC not above 0.031 µg/mL.
`O=C1COc2ccc(N3C[C@@H](CCCN[C@@H]4Cn5c(=O)ccc6ccc(F)c4c65)OC3=O)nc2N1` [Example 190, (S)-9-fluoro-1-{3-[(R)-2-oxo-3-(3-oxo-3,4-dihydro-2H-pyrido[3,2-b][1,4]oxazin-6-yl)-oxazolidin-5-yl]-propylamino}-1,2-dihydro-pyrrolo[3,2,1-ij]quinolin-4-one] returned a minimum inhibitory concentration (MIC) not above 0.031 µg/mL.
As for `O=C1CSc2ccc(N3C[C@@H](CCCN[C@@H]4Cn5c(=O)ccc6ccc(F)c4c65)OC3=O)nc2N1` [Example 192, (S)-9-fluoro-1-{3-[(R)-2-oxo-3-(3-oxo-3,4-dihydro-2H-pyrido[3,2-b][1,4]thiazin-6-yl)-oxazolidin-5-yl]-propylamino}-1,2-dihydro-pyrrolo[3,2,1-ij]quinolin-4-one], the minimum inhibitory concentration (MIC) is not above 0.031 µg/mL.
Still for that read-out and setting: under `O=C1COc2ccc(N3C[C@H](CCCN[C@H]4Cn5c(=O)ccc6ccc(F)c4c65)OC3=O)nc2N1` [Example 193, (R)-9-fluoro-1-{3-[(S)-2-oxo-3-(3-oxo-3,4-dihydro-2H-pyrido[3,2-b][1,4]oxazin-6-yl)-oxazolidin-5-yl]-propylamino}-1,2-dihydro-pyrrolo[3,2,1-ij]quinolin-4-one] stands not above 0.031 µg/mL; under `O=C1COc2ccc(N3C[C@@H](CCCN[C@H]4Cn5c(=O)ccc6ccc(F)c4c65)OC3=O)nc2N1` [Example 194, (R)-9-fluoro-1-{3-[(R)-2-oxo-3-(3-oxo-3,4-dihydro-2H-pyrido[3,2-b][1,4]oxazin-6-yl)-oxazolidin-5-yl]-propylamino}-1,2-dihydro-pyrrolo[3,2,1-ij]quinolin-4-one], not above 0.031 µg/mL; under `O=C1CSc2ccc(N3C[C@H](CCCN[C@H]4Cn5c(=O)ccc6ccc(F)c4c65)OC3=O)nc2N1` [Example 195, (R)-9-fluoro-1-{3-[(S)-2-oxo-3-(3-oxo-3,4-dihydro-2H-pyrido[3,2-b][1,4]thiazin-6-yl)-oxazolidin-5-yl]-propylamino}-1,2-dihydro-pyrrolo[3,2,1-ij]quinolin-4-one], not above 0.031 µg/mL.
Compound `O=C1CSc2ccc(N3C[C@@H](CCCN[C@H]4Cn5c(=O)ccc6ccc(F)c4c65)OC3=O)nc2N1` [Example 196, (R)-9-fluoro-1-{3-[(R)-2-oxo-3-(3-oxo-3,4-dihydro-2H-pyrido[3,2-b][1,4]thiazin-6-yl)-oxazolidin-5-yl]-propylamino}-1,2-dihydro-pyrrolo[3,2,1-ij]quinolin-4-one] returned a minimal inhibitory concentration (MIC) not above 0.031 µg/mL.

Still in this assay, the particulars now being: strain A894.
As for `O=C1CSc2ccc(N3C[C@H](CCCN[C@@H]4Cn5c(=O)ccc6ccc(F)c4c65)OC3=O)nc2N1` [Example 191, (S)-9-fluoro-1-{3-[(S)-2-oxo-3-(3-oxo-3,4-dihydro-2H-pyrido[3,2-b][1,4]thiazin-6-yl)-oxazolidin-5-yl]-propylamino}-1,2-dihydro-pyrrolo[3,2,1-U]quinolin-4-one], the “MIC for M. catarrhalis A894” value is “≦0.031 mg/l”.
Still for that read-out and setting: with “(1R,2R)-2-(1-hydroxy-1-methyl-ethyl)-1-{3-[(R)-2-oxo-3-(3-oxo-3,4-dihydro-2H-benzo[1,4]thiazin-6-yl)-oxazolidin-5-yl]-propylamino}-1,2-dihydro-pyrrolo[3,2,1-ij]quinolin-4-one and (1S,2S)-2-(1-hydroxy-1-methyl-ethyl)-1-{3-[(R)-2-oxo-3-(3-oxo-3,4-dihydro-2H-benzo[1,4]thiazin-6-yl)-oxazolidin-5-yl]-propylamino}-1,2-dihydro-pyrrolo[3,2,1-ij]quinolin-4-one [Example 170]” the figure was 0.25 µg/mL.
